Experimental data reported in paper PMC12858634, “Functional characterisation of Target of Rapamycin (TOR) signalling in Physcomitrella” (Plant Cell Reports, 2026).

Target: T1, PpFKBP12 (Physcomitrium patens, UniProt A0A2K1L9Z1, M56K/G57Q/R58E)
T1 construct: gene LOC112274967
Experiment: yeast fkbp12 deletion complementation, growth spot assay
Format: cell-based
Conditions: rapamycin 100 or 200 nM, galactose medium, 30 °C, 5 days; acts as FKBP12-rapamycin complex on host yeast TOR

T1 sequence (A0A2K1L9Z1 entry or part of it M56K/G57Q/R58E): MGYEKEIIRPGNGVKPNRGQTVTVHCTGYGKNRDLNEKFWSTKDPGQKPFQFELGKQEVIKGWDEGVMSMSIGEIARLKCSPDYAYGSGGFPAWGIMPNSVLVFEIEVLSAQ

Question: For `CO[C@H]1C[C@@H]2CC[C@@H](C)[C@@](O)(O2)C(=O)C(=O)N2CCCC[C@H]2C(=O)O[C@H]([C@H](C)C[C@@H]2CC[C@@H](O)[C@H](OC)C2)CC(=O)[C@H](C)/C=C(\C)[C@@H](O)[C@@H](OC)C(=O)[C@H](C)C[C@H](C)/C=C/C=C/C=C/1C` [rapamycin], which “yeast fkbp12 deletion complementation, growth spot assay” value is on record?
Answer: The value was “all but PpFKBP12^W40D complemented the rapamycin-resistant phenotype of fkbp12Δ cells”.
